Measurements: patent publication US20090176817A1, “Method of Treatment of Diarrhea-Predominant Irritable Bowel Syndrome in a Subject” (priority 2005, published 2009)
Marks after values point to notes of the source that are not given here.

Experiments:
[1] = Study S.241.1.109: single and multiple dose pharmacokinetics 2 mg TID; type: in vivo, human; conditions: for AUC accumulation ratio Day 7/Day 1: AUC(0-τ); for Linearity Ratio: AUC(0-τ) Day 7 to AUC(0-inf) Day 1; for Tmax: median (min, max); for Accumulation following TID dosing (mean increase): Day 7:Day 1, AUC(0-τ) and Cmax; for Time of peak concentration: after cilansetron dosing; for half-life: approximate mean; for AUC(0-τ) (Day 7) to AUC(0-inf) (Day 1) mean ratio / Cmax accumulation ratio Day 7/Day 1: human
Procedure: In an open-label, randomized, parallel-group study in 36 healthy, male and female subjects (19-45 years), subjects received a 2 mg single dose of cilansetron on Day 1 and 2 mg TID on Days 2-7. The morning doses on Days 1 and 7 were administered immediately after a standard breakfast. Serial blood samples for the measurement of single-dose and steady-state pharmacokinetics of cilansetron and its main metabolites, (4R)-hydroxy cilansetron and (4S)-hydroxy cilansetron, were collected on Day 1 (single dose) up to 24 hours postdose and on Day 7 (multiple dose) up to 8 hours postdose.

[2] = Study S.241.1.109: interaction with paroxetine 20 mg QD; type: in vivo, human; conditions: for AUC(0-τ) / Cmax / Tmax: steady state; for AUC(0-τ): AUC(0-8); for AUC(0-τ) / Cmax: arith. mean; for Tmax: median; for AUC(0-τ) Ratio (Treatment B/A) / Cmax Ratio (Treatment B/A): cilansetron + paroxetine / cilansetron alone, ANOVA of log-transformed data
Procedure: (§1) In an open-label, randomized, parallel-group study in three groups of 12 healthy, male and female subjects (aged 19 to 45 years), subjects received a 2 mg single dose of cilansetron on Day 1, 2 mg TID on Days 2-13, and a 2 mg single dose on Day 14. […] All morning doses of cilansetron and enzyme inhibitors were administered immediately after a standard breakfast. […] For each treatment group, log-transformed cilansetron AUC(0-τ) and Cmax values on Day 14 (cilansetron+enzyme inhibitor) were compared statistically versus values on Day 7 (cilansetron alone).
FIG. 50, FIG. 51, and FIG. 52 present geometric mean steady-state plasma concentration-time profiles for cilansetron and its 4-hydroxy metabolites in the absence and presence of concomitant paroxetine. […] These increases in exposure are not clinically significant.

[3] = Study S.241.1.109: interaction with fluvoxamine 50 mg QD; type: in vivo, human; conditions: for AUC(0-τ) / Cmax / Tmax: steady state; for AUC(0-τ): AUC(0-8); for AUC(0-τ) / Cmax: arith. mean; for Tmax: median; for AUC(0-τ) Ratio (Treatment B/A) / Cmax Ratio (Treatment B/A): cilansetron + fluvoxamine / cilansetron alone, ANOVA of log-transformed data
Procedure: as §1
FIG. 42, FIG. 43, and FIG. 44 present geometric mean steady-state plasma concentration-time profiles for cilansetron and its 4-hydroxy metabolites in the absence and presence of concomitant fluvoxamine.

[4] = Study S.241.1.107: pharmacokinetics in hepatic impairment, 8 mg TID; conditions: for AUC(0-τ) Ratio / Cmax Ratio: geometric LS mean ratio impaired/healthy; for AUC(0-τ) Ratio / Cmax Ratio / AUC(0-τ), Geom. LS Mean / Cmax, Geom. LS Mean / AUC(0-τ) / Cmax / T½ / Tmax: cilansetron 8 mg TID oral; for AUC(0-τ): AUC(0-8); for AUC(0-τ) / Cmax / T½: arith. mean (%CV); for Tmax: median; for AUC(0-τ) decrease with hepatic impairment / Cmax decrease with hepatic impairment: in vivo
Procedure: The effect of hepatic impairment on the pharmacokinetics of cilansetron was evaluated in a multiple-dose, parallel group study in 14 healthy and 14 moderately to severely hepatically impaired male and female subjects, aged 41-70 years. Impaired subjects (Child-Pugh score 7 to 11) were matched to healthy subjects by age (±2 years), sex, menstrual status, and smoking history status. All subjects received oral cilansetron 8 mg TID on Days 1 to 5, and a single dose on the morning of Day 6. […] Blood samples were also collected at predose on Day 1, and at predose, 1 hour and 1.5 hours postdose on Day 6, for measurement of cilansetron protein binding in serum.

[5] = Study S.241.1.103: 14C mass balance, 8 mg oral and IV; type: in vivo, human
Procedure: The extent of absorption, distribution, metabolism, and elimination of cilansetron has been examined in an open-label, randomized, two period, crossover, mass balance study in 6 healthy male subjects who were treated with a single oral and single […] (30-minute infusion) of 8 mg ^14C-labeled (50 K μCi) cilansetron, with a washout of at least 2 weeks between periods. The ^14C-cilansetron was appropriately labeled in the aromatic ring and the label was therefore not metabolically labile. Serial blood samples, urine collection, and fecal collection were performed up to 144 hours following each dose. ^14C-radioactivity was measured in plasma, whole blood, urine, and feces, and unchanged cilansetron was measured in plasma and urine. Identification of metabolites of cilansetron was performed in plasma, urine, and feces. The results of this study are presented in Table 2.7.2.3.15 and the mean concentration-time plots for ^14C-radioactivity and unchanged cilansetron are shown in FIG. 24 and FIG. 25.
Cilansetron and metabolite profiles in plasma, urine, and feces were evaluated using HPLC separation followed by determination of radioactivity using scintillation counting. Cilansetron, (4R)-hydroxy cilansetron, and (4S)-hydroxy cilansetron accounted for 29.3%, 25.7%, and 13.8% of the total radioactivity, respectively, in plasma at 6 hours after oral administration, and for 46.2%, 20.0% and 14.1%3 of the total radioactivity in plasma at 3 hours after IV administration. The cumulative percent of cilansetron and 4-hydroxy metabolites excreted in urine over a 48-hour interval following dosing was 0.5% and 32.8% of the dose, respectively, following oral dosing, and 1.1% and 31.9% of the dose following IV dosing. In the case of fecal excretion over a 96-hour postdose, cilansetron, (4R)-hydroxy cilansetron, and (4S)-hydroxy cilansetron accounted for 1.2%, 6.9%, and 4.6% of the dose following oral administration, and 1.3%, 5.1%, and 11.3% of the dose following IV administration.

[6] = target: T1, human P-glycoprotein (Homo sapiens, UniProt P08183); test: Study K.241.6026: in vitro transport by P-glycoprotein in PK 1 LLC MDR cells; type: in vitro ADME; conditions: arithmetic mean percentages transported, 3 hours of incubation
T1 construct: expressed in transfected cells; host or cells: PK 1 LLC MDR cells (LLC-PK1 porcine kidney cells expressing human MDR1, by own knowledge)
T1 sequence (P08183 whole entry): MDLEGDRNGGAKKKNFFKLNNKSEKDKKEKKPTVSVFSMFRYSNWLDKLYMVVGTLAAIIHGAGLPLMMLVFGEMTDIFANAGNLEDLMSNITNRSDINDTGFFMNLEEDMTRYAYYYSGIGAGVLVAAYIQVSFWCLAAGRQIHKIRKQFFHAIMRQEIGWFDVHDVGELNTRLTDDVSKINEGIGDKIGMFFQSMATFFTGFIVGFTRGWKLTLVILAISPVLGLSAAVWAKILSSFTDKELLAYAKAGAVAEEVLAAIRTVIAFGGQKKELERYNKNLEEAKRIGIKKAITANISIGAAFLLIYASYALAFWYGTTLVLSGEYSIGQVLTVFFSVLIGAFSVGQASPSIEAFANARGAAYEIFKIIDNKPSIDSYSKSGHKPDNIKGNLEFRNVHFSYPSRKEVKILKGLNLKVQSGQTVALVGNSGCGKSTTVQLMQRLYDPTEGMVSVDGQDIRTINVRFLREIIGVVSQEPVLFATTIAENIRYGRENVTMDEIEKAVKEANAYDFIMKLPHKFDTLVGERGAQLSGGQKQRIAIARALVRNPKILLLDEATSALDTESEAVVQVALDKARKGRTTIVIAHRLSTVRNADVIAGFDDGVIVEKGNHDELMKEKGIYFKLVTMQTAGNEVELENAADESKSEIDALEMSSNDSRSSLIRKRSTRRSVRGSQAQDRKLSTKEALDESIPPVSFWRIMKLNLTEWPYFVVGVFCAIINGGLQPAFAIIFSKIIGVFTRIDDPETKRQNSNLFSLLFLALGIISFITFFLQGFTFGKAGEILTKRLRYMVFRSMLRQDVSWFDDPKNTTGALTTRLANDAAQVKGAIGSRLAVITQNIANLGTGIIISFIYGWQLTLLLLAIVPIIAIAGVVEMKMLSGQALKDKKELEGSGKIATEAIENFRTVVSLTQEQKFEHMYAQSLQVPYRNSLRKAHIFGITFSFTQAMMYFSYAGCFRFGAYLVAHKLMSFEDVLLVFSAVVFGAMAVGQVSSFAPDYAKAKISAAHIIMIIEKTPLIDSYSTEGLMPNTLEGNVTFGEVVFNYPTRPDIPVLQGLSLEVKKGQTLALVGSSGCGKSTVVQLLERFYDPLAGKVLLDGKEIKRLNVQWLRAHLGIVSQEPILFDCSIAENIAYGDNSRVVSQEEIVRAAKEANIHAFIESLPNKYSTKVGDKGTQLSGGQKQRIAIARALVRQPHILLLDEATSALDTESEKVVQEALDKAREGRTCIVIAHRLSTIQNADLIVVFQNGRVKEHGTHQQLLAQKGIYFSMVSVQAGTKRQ

[7] = Cilansetron 2 mg TID + Paroxetine 20 mg QD
[8] = Cilansetron 2 mg TID alone (paroxetine group)
[9] = Cilansetron 2 mg TID + Fluvoxamine 50 mg once daily
[10] = Cilansetron 2 mg TID alone (fluvoxamine group)
[11] = 3 hours after IV administration
[12] = 6 hours after oral administration

In the case of `Cc1nccn1CC1CCc2c(c3cccc4c3n2CC[C@H]4O)C1=O` (stereo partly drawn) [(4R)-hydroxy cilansetron], the “AUC(0-τ)” value ([1]; 2 mg TID, Day 7) is reported as 12.9 (18) ng · h/mL, the Cmax ([1]; 2 mg TID, Day 7) is reported as 2.66 (22) ng/mL and the “AUC(0-inf)” value ([1]; 2 mg single dose, Day 1) is reported as 11.7 (18) ng · h/mL. The “AUC(0-τ)” value ([1]; 2 mg single dose, Day 1) was 8.43 (21) ng · h/mL, the Cmax ([1]; 2 mg single dose, Day 1) was 1.92 (27) ng/mL and the T½ ([1]; 2 mg single dose, Day 1) was 3.89 (15) h. The “AUC accumulation ratio Day 7/Day 1” value [1] was 147^d %, the “Linearity Ratio” value [1] was 107% and the Tmax ([1]; Day 1) was 2.00 (0.50, 4.00)^b h. The “Accumulation following TID dosing (mean increase)” value [1] was 35-47%, the Tmax ([1]; Day 7) was 2.00 (0.75, 4.00)^b h and the “Time of peak concentration” value [1] was “approximately 2 hours”. For the same compound, the half-life [1] was “approximately 4 hours”, the “AUC(0-τ) (Day 7) to AUC(0-inf) (Day 1) mean ratio” value ([1]; in vivo) was 1.07 and the “Cmax accumulation ratio Day 7/Day 1” value ([1]; in vivo) was 135^e %. For the same compound, the “AUC(0-τ)” value [2, 7] was 15.2 ng·h/mL, the Cmax [2, 7] was 3.41 ng/mL and the Tmax [2, 7] was 1.50 h. For the same compound, the “AUC(0-τ)” value [2, 8] was 13.5 ng·h/mL, the Cmax [2, 8] was 2.76 ng/mL and the Tmax [2, 8] was 2.50 h. The “AUC(0-τ) Ratio (Treatment B/A)” value [2] was 116%, the “Cmax Ratio (Treatment B/A)” value [2] was 127% and the “Mean AUC increase with paroxetine” value ([2]; human, in vivo) was 16%. The “Mean Cmax increase with paroxetine” value ([2]; human, in vivo) was 27%, the “AUC(0-τ)” value [3, 9] was 9.57 ng·h/mL and the Cmax [3, 9] was 1.63 ng/mL. For the same compound, the Tmax [3, 9] was 0.75 h, the “AUC(0-τ)” value [3, 10] was 12.9 ng·h/mL and the Cmax [3, 10] was 2.74 ng/mL. The Tmax [3, 10] was 1.75 h, the “AUC(0-τ) Ratio (Treatment B/A)” value [3] was 76% and the “Cmax Ratio (Treatment B/A)” value [3] was 60%. For the same compound, the “Mean AUC decrease with fluvoxamine” value ([3]; human, in vivo) was 24%, the “Mean Cmax decrease with fluvoxamine” value ([3]; human, in vivo) was 40% and the “AUC(0-τ) Ratio” value [4] was 0.86. For the same compound, the “Cmax Ratio” value [4] was 0.70, the “AUC(0-τ), Geom. LS Mean” value ([4]; healthy) was 57.4 ng·h/mL and the “Cmax, Geom. LS Mean” value ([4]; healthy) was 13.2 ng/mL. For the same compound, the “AUC(0-τ)” value ([4]; healthy) was 62.7 (32) ng · h/mL, the Cmax ([4]; healthy) was 14.1 (28) ng/mL and the T½ ([4]; healthy) was 6.38 (18) h. For the same compound, the Tmax ([4]; healthy) was 1.00 h, the “AUC(0-τ), Geom. LS Mean” value ([4]; hepatically impaired) was 49.4 ng·h/mL and the “Cmax, Geom. LS Mean” value ([4]; hepatically impaired) was 9.30 ng/mL. For the same compound, the “AUC(0-τ)” value ([4]; hepatically impaired) was 53.7 (40) ng · h/mL, the Cmax ([4]; hepatically impaired) was 11.1 (62) ng/mL and the T½ ([4]; hepatically impaired) was 10.0 (41) h. For the same compound, the Tmax ([4]; hepatically impaired) was 1.50 h, the “AUC(0-τ) decrease with hepatic impairment” value [4] was 14% and the “Cmax decrease with hepatic impairment” value [4] was 30%. The “Share of total radioactivity in plasma” value [5, 11] was 20.0%, the “Share of total radioactivity in plasma” value [5, 12] was 25.7% and the “Fecal excretion over 96 hours” value ([5]; IV) was 5.1 % of the dose. For the same compound, the “Fecal excretion over 96 hours” value ([5]; oral) was 6.9 % of the dose and the “Membrane Passage” value [6] was 14%.
For `Cc1nccn1CC1CCc2c(c3cccc4c3n2CC[C@@H]4O)C1=O` (stereo partly drawn) [(4S)-hydroxy cilansetron], the “AUC(0-τ)” value ([1]; 2 mg TID, Day 7) was 7.91 (19) ng · h/mL, the Cmax ([1]; 2 mg TID, Day 7) was 1.25 (18) ng/mL and the “AUC(0-inf)” value ([1]; 2 mg single dose, Day 1) was 7.42 (20) ng · h/mL. The “AUC(0-τ)” value ([1]; 2 mg single dose, Day 1) was 3.26 (19) ng · h/mL, the Cmax ([1]; 2 mg single dose, Day 1) was 0.605 (22) ng/mL and the T½ ([1]; 2 mg single dose, Day 1) was 7.48 (26) h. For the same compound, the “AUC accumulation ratio Day 7/Day 1” value [1] was 239^d %, the “Linearity Ratio” value [1] was 108% and the Tmax ([1]; Day 1) was 4.00 (1.50, 6.00)^b h. The “Accumulation following TID dosing (mean increase)” value [1] was 105-139%, the Tmax ([1]; Day 7) was 3.00 (1.75, 4.00)^b h and the “Time of peak concentration” value [1] was 3 to 4 h. The half-life [1] was roughly 7.5 h, the “AUC(0-τ) (Day 7) to AUC(0-inf) (Day 1) mean ratio” value ([1]; in vivo) was 1.08 and the “Cmax accumulation ratio Day 7/Day 1” value ([1]; in vivo) was 205^e %. For the same compound, the “Accumulation following TID dosing” value ([1]; in vivo) was “greater than 2 fold”, the “AUC(0-τ)” value [2, 7] was 7.62 ng·h/mL and the Cmax [2, 7] was 1.23 ng/mL. The Tmax [2, 7] was 3.00 h, the “AUC(0-τ)” value [2, 8] was 7.97 ng·h/mL and the Cmax [2, 8] was 1.22 ng/mL. The Tmax [2, 8] was 3.00 h, the “AUC(0-τ) Ratio (Treatment B/A)” value [2] was 99% and the “Cmax Ratio (Treatment B/A)” value [2] was 105%. The “AUC(0-τ)” value [3, 9] was 7.17 ng·h/mL, the Cmax [3, 9] was 1.07 ng/mL and the Tmax [3, 9] was 2.00 h. For the same compound, the “AUC(0-τ)” value [3, 10] was 7.29 ng·h/mL, the Cmax [3, 10] was 1.17 ng/mL and the Tmax [3, 10] was 3.00 h. For the same compound, the “AUC(0-τ) Ratio (Treatment B/A)” value [3] was 101%, the “Cmax Ratio (Treatment B/A)” value [3] was 93% and the “AUC(0-τ) Ratio” value [4] was 0.68. The “Cmax Ratio” value [4] was 0.64, the “AUC(0-τ), Geom. LS Mean” value ([4]; healthy) was 42.5 ng·h/mL and the “Cmax, Geom. LS Mean” value ([4]; healthy) was 6.89 ng/mL. The “AUC(0-τ)” value ([4]; healthy) was 47.9 (36) ng · h/mL, the Cmax ([4]; healthy) was 7.57 (33) ng/mL and the T½ ([4]; healthy) was 7.65 (17) h. For the same compound, the Tmax ([4]; healthy) was 3.00 h, the “AUC(0-τ), Geom. LS Mean” value ([4]; hepatically impaired) was 29.1 ng·h/mL and the “Cmax, Geom. LS Mean” value ([4]; hepatically impaired) was 4.39 ng/mL. The “AUC(0-τ)” value ([4]; hepatically impaired) was 33.8 (57) ng · h/mL, the Cmax ([4]; hepatically impaired) was 5.17 (59) ng/mL and the T½ ([4]; hepatically impaired) was 9.41 (30) h. The Tmax ([4]; hepatically impaired) was 3.00 h, the “AUC(0-τ) decrease with hepatic impairment” value [4] was 32% and the “Cmax decrease with hepatic impairment” value [4] was 36%. The “Share of total radioactivity in plasma” value [5, 11] was 14.1%, the “Share of total radioactivity in plasma” value [5, 12] was 13.8% and the “Fecal excretion over 96 hours” value ([5]; IV) was 11.3 % of the dose. The “Fecal excretion over 96 hours” value ([5]; oral) was 4.6 % of the dose and the “Membrane Passage” value [6] was 13%.
